Measurements taken from patent US20170008896A1, “HETEROARYL SYK INHIBITORS” (BOEHRINGER INGELHEIM INTERNATIONAL GMBH, priority 2014, published 2017).
Where two headings read alike, the source gives them in different places.

Columns and labels:
[1] = molecular target: T1, Recombinant human Aurora B (amino acids 1-344), His tag (Homo sapiens, UniProt Q96GD4); assay: Aurora B Kinase Test (ADP Glo luminescence); format: biochemical
T1 construct: Recombinant human Aurora B (amino acids 1-344, clone number DU1773)
Experimental: The activity of the Aurora B kinase protein was determined using the ADP Glo® Luminescence Kinase test (Promega; V9103X).
Serial Dilution is done in 1:10 steps in 100% DMSO.
Then 20 μl Kinase detection mix (Detection Buffer #V913B Promega; Kinase Detection Substrate #V914B Promega) were added and incubated for 40 minutes at room temperature.
(§1) The output file of the reader is a csv file that contains the well number and measured RLU. For data evaluation and calculation, the measurement of the negative control was set as 0% ctrl and the measurement of the positive control was set as 100% ctrl. Based on this values the % value for the measurement of each substance concentration was calculated using an Assay Explorer software (Accelrys). Normally, the % ctrl values calculated are between 0% and 100% values but may also occur outside these limits in individual cases based on variability or compound characteristics. The IC50 values were calculated from the % ctrl values using Assay Explorer software.Calculation: [y=(a−d)/(1+(x/c)̂b)+d], a=low value, d=high value; x=conc M; c=IC50 M; b=hill; y=% ctrl.

FLT3 = molecular target: T2, FLT3 (Homo sapiens, UniProt P36888); assay: FLT3 Kinase Test (Z'-LYTE); format: biochemical
T2 construct: purchased Invitrogen PV3182
T2 sequence (P36888 564-993 limits assumed): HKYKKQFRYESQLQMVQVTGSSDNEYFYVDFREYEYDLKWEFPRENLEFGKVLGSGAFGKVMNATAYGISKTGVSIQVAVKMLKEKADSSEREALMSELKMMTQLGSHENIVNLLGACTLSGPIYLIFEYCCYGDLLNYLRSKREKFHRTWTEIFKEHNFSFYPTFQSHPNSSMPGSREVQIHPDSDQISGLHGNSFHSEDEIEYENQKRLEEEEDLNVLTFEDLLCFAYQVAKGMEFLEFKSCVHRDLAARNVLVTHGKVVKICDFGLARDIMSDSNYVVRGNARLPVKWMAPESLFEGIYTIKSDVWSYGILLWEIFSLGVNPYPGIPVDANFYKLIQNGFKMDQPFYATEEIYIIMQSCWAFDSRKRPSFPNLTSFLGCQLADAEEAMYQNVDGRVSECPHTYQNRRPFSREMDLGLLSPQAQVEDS
Experimental: FLT3 is obtained from Invitrogen in 50 mM Tris (pH7.5); 100 mM NaCl; 0.05 mM EDTA, 0.05% NP-40, 2 mM DTT; 50% Glycerol #PV3182; Lot 286671; sequence see below). The enzyme is diluted to 720 nM (35 μg/ml) in enzyme dilution buffer and 10 μl aliquots are stored at −80° C.
The activity of FLT3 is measured using the Z′-LYTETM assay technology from Invitrogen (#PV3191)
The assay is performed in 384 black plates from Corning (#3676) in a final volume of 10 μl by adding 5 μl of kinase peptide mix and 2.5 μl of compound dilution. The reaction is started by addition of 2.5 μl of the 4×]ATP solution.
(§2) Positive controls are reaction mixtures containing no test compound; negative controls (blanks) are reaction mixtures containing no kinase. As a further control, the phosphopeptide solution is added to wells without kinase(=100% phosphorylation control). The non inhibited kinase reaction will result in a phosphorylation corresponding to 20%-30% of the phosphorylation control.
The reaction is performed for 1 h at room temperature before 5 μl of the development solution is added. After a further incubation for 1 h at room temperature 5 μl of the stop reagent is added. The plates are read on a Flex Station II 384 (Molecular Devices).
The output text file is evaluated in an “MS-Excel-VB-Makro” and “GraphPadPrism”(Version 5) (GraphPad Software Inc.) is used to calculate the results. Data for the inhibition of FLT3 are reported in M. data for the inhibition of the protease are reported in % CTL.

[2] = Human Liver Microsomal Stability Test; format: in vitro ADME; details: human liver microsomes, 1 μM test compound, 37° C.; for micosomal stability Cl: Table 2a
Experimental: The metabolic degradation for a specific SYK-inhibitor is performed at 37° C. with pooled human liver microsomes (human liver microsomes are commercially available as “BD UltraPool™” by Corning Life Sciences, Fogostraat 12, 1060 LJ Amsterdam, The Netherlands). The final incubation volume of 100 μl per time point contains TRIS buffer pH 7.6 at RT (0.1 M), magnesium chloride (5 mM), microsomal protein (1 mg/ml) and the test compound at a final concentration of 1 μM.
Following a short preincubation period at 37° C., the reaction is initiated by addition of beta-nicotinamide adenine dinucleotide phosphate in its reduced form (NADPH, 1 mM) and terminated by transfering an aliquot into solvent after different time points. Additionally, the NADPH-independent degradation is monitored in incubations without NADPH, terminated at the last time point.
The quenched (terminated) incubations are then pelleted by centrifugation (10000 g, 5 min).
An aliquot of the supernatant is assayed by LC-MS/MS for the remaining amount of parent compound. The half-life (t1/2 INVITRO) is determined by the slope of the semilogarithmic plot of the concentration-time profile.
The intrinsic clearance (CL_[…]) is calculated by considering the amount of protein in the incubation:
CL_[…] [μl/min/mg protein]=(Ln 2/(t1/2 INVITRO [min] * protein content [mg/ml]))*1000
The protein content [mg/ml] was determined with the “Bicinchoninic Acid Kit” of Sigma Aldrich (commercially available).
The upscaled intrinsic Clearance (CL_UP_INT) is calculated by considering the liver weight [g liver/kg body weight] and the microsomal recovery [mg protein/g liver]:
CL_UP_INT [ml/min/kg]=0.001*CL_[…]*liver weight*microsomal recovery • with microsomal recovery=45 mg protein/g liver • with liver weight=25.7 g liver/kg body weight
The percent hepatic blood flow (% Qh) is finally calculated by considering the human liver blood flow Q [ml/min/kg]:
% Qh [%]=((Q*CL_UP_INT)/(Q+CL_UP_INT)/Q)*100 • with liver blood flow (Q)=20.7 ml/min/kg.

Human GSK3beta = molecular target: T3, Human GSK3beta (Homo sapiens, UniProt P49841); assay: GSK 3β Kinase-Test (Z'-LYTE); format: biochemical
T3 construct: purchased University Dundee/Scotland (Dr. James Hastie, Dept. of Biochemistry); host or cells: SF21 insect cells
Experimental: Human GSK3beta (expressed and purified from SF21 cells)is obtained from the University Dundee/Scotland (Dr. James Hastie—Dept. of Biochemistry) in 50 mM Tris (pH7.5); 150 mM NaCl; 0.1 mM EGTA, 270 mM Succrose, 0.1% R-mercaptoethanol, 1 mM benzamidine, 0.2 mM PMSF; sequence see below). The enzyme is diluted to 3.56 μM (168 μg/ml) in enzyme dilution buffer and 6 μl aliquots are stored at −80° C.
The activity of GSK3β kinase protein is measured using the Z′-LYTETM assay technology from Invitrogen (#PV3324).
The assay is performed in 384 black plates from Corning (#3676) in a final volume of 10 μl by adding 5 μl of kinase peptide mix and 2.5 μl of compound dilution. The reaction is started by addition of 2.5 μl of the 4× ATP solution.
as §2, with “ATP.” for “kinase.”, “kinase and without ATP(=100%” for “kinase(=100%”
The reaction is performed 1 h at room temperature. After 1 h 5 μl of the development solution is added. After a further incubation for 1 h at room temperature 5 μl of the stop reagent is added. Finally the plates are read on a Flex Station II 384 (Molecular Devices).
The output text file is evaluated in an “MS-Excel-VB-Makro” and “Graph Pad Prism”(Version 5) (GraphPad Software Inc.) is used to calculate the results. Data for the inhibition of GSK3beta are reported in M. data for the inhibition of the protease are reported in % CTL.

[3] = molecular target: T4, Recombinant human Syk (amino acids 342-635), GST fusion (Homo sapiens, UniProt P43405); assay: Syk Kinase Test (Kinase Glo luminescence); format: biochemical; details: Table 1; read-out: SYK-inhibition IC50-value
T4 construct: Recombinant human Syk (amino acids 342-635); made in house
Experimental: as §1, with “measured relative light units (RLU).” for “measured RLU.”, “as 100%” for “as 0%”, “as 0%” for “as 100%”, “Explorer software.” for “Explorer software.Calculation: [y=(a−d)/(1+(x/c)̂b)+d], a=low value, d=high value; x=conc M; c=IC50 M; b=hill; y=% ctrl.”

[4] = patients with ITP (Podolanczuk et al; Blood (2009)); cited from earlier work
[5] = Table 2c, compounds of WO 2011/092128, read-out: IC50 (AURB-Inhibition)
[6] = Table 2c, compounds of WO 2011/092128, read-out: IC50 (FLT3-Inhibition)
[7] = Table 2c, compounds of WO 2011/092128, read-out: IC50 (GSK3beta-Inhibition)
[8] = Table 1, read-out: AURB-inhibition IC50-value
[9] = Table 2a, compounds of the invention, read-out: AURB-inhibition IC50-value
[10] = Table 1, read-out: FLT3-inhibition IC50-value
[11] = Table 2a, compounds of the invention, read-out: GSK3-beta inhib. IC50-value

T1 sequence (Q96GD4 whole entry, the tested form may be a part): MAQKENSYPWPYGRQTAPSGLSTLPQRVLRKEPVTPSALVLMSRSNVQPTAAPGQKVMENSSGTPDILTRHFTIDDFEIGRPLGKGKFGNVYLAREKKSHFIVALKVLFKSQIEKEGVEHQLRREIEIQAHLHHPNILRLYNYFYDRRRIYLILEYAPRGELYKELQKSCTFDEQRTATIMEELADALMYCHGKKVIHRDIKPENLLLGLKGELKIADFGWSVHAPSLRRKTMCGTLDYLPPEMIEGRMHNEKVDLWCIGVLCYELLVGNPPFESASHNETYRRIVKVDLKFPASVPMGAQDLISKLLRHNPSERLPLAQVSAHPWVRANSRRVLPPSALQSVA
T3 sequence (P49841 whole entry): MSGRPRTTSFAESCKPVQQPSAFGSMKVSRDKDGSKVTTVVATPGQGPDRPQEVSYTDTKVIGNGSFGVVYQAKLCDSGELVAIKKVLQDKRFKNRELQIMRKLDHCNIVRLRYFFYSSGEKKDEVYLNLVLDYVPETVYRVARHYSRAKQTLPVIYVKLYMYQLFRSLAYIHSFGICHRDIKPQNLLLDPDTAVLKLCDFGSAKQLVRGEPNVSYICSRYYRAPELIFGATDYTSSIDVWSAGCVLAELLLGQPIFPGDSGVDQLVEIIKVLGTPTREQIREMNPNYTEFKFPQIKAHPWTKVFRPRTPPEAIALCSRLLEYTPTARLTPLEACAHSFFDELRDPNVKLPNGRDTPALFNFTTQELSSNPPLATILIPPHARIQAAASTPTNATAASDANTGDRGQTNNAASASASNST

Row | IC50 [1, 8] [µM] | IC50 [1, 9] [µM] | IC50 (FLT3; [10]) [µM] | IC50 [3] [µM] | micosomal stability Cl [2] [% Qh] | IC50 (Human GSK3beta; [11]) [µM] | microsomal stability Cl ([2]; Table 2b) [% Qh] | Structure (SMILES) | also measured
1 |  |  |  |  |  |  | <23 | Cc1c(-c2cc(O[C@H](C)[C@H]3CNC(=O)C3)c3cccnc3c2)cnn1C [Example 112] | 
2 |  |  |  |  |  |  | 26 | CCCn1cc(-c2cc(O[C@H](C)[C@H]3CNC(=O)C3)c3cccnc3c2)cn1 [Example 114] | 
3 |  |  |  |  |  |  | <23 | CC(C)n1cc(-c2cc(O[C@H](C)[C@H]3CNC(=O)C3)c3cccnc3c2)cn1 [Example 115] | 

Further lines, the compound ahead of its results:

Row | Structure (SMILES) | IC50 [1, 8] [µM] | IC50 [1, 9] [µM] | IC50 (FLT3; [10]) [µM] | IC50 [3] [µM] | micosomal stability Cl [2] [% Qh] | IC50 (Human GSK3beta; [11]) [µM] | microsomal stability Cl ([2]; Table 2b) [% Qh] | also measured
4 | C[C@@H](Oc1nc(-c2ccc(C(F)(F)F)nc2)cc2ncccc12)[C@H]1CNC(=O)C1 [Example 3, reference compound] |  |  |  |  |  |  |  | IC50 [1, 5]: 1.04 µM; IC50 (FLT3; [6]): 1.82 µM; microsomal stability Cl ([2]; Table 2c): 24 % Qh; IC50 (Human GSK3beta; [7]): > 10 µM
5 | Cc1nc2cc(-c3cnn(C(C)(C)C)c3)cc(O[C@H](C)[C@H]3CNC(=O)C3)c2[nH]1 [Example 6, (4R)-4-[(1R)-1-[[6-(1-tert-Butylpyrazol-4-yl)-2-methyl-1H-benzimidazol-4-yl]oxy]ethyl]pyrrolidin-2-one] | > 50 | > 50 | 35.8 | 0.151 | <23 | > 10 |  | 
6 | Cc1cc2c(O[C@H](C)[C@H]3CNC(=O)C3)cc(-c3cnn(C(C)(C)C)c3)cn2n1 [Example 34, (4R)-4-[(1R)-1-[6-(1-tert-Butylpyrazol-4-yl)-2-methyl-pyrazolo[1,5-a]pyridin-4-yl]oxyethyl]pyrrolidin-2-one] | > 50 | > 50 | 7.93 | 0.0122 | <23 | > 10 |  | 
7 | C[C@@H](Oc1nc(-c2ccc(N3CCOCC3)nc2)cc2ncccc12)[C@H]1CNC(=O)C1 [Example 45, reference compound] |  |  |  |  |  |  |  | IC50 [1, 5]: 0.086 µM; IC50 (FLT3; [6]): 0.1 µM; microsomal stability Cl ([2]; Table 2c): 53 % Qh; IC50 (Human GSK3beta; [7]): > 10 µM
8 | Cc1nc2cc(-c3cnn(C(C)(C)C)c3)nc(O[C@H](C)[C@H]3CNC(=O)C3)n2n1 [Example 84, (4R)-4-[(1R)-1-[[7-(1-tert-Butylpyrazol-4-yl)-2-methyl-[1,2,4]triazolo[1,5-c]pyrimidin-5-yl]oxy]ethyl]pyrrolidin-2-one] | > 50 | > 50 | > 50 | 0.637 | <23 | > 10 |  | IC50 (FLT3; Table 2a, compounds of the invention, read-out: FLT3-inhibition IC50-value): > 50 µM
9 | COc1cc(Nc2ncc(F)c(Nc3ccc4c(n3)N(COP(=O)(O)O)C(=O)C(C)(C)O4)n2)cc(OC)c1OC [R788 (R406)] |  |  |  |  |  |  |  | platelet counts [4]: improved platelet counts
